Values quoted from earlier work as cited in US10188628B1, “Release composition for derivatives of Cannabaceae” (priority 2016, dated 2019).

Tests used:
[1] = after oral administration
[2] = not given; remark: listed apart in the source

CCCCCc1cc(O)c2c(c1)OC(C)(C)[C@@H]1CCC(C)=C[C@@H]21 [Dronabinol, Δ^9-tetrahydrocannabinol]
appetite stimulant effect may continue [1]: ≥ 24 h | duration of action for psychoactive effects [1]: 4 to 6 h | onset of action [1]: 0.5 to 1 h | peak effect [1]: 2 to 4 h | stability to storage and stress conditions (heat, light): thermolabile and photolabile | biopharmaceutical classification system (BCS) class (low aqueous solubility and high permeability): Class II | absorbed ([2]; after a single oral dose): 90-95% | maximal plasma levels ([2]; oral dosing of 20 mg in a sesame oil formulation): around 10 ng/ml | administered dose reaching systemic circulation ([2]; oral, first pass hepatic metabolism and high lipid solubility): 10-20%
